Measured values taken from patent publication US9556217B2, “Amphiphilic compounds” (WISCONSIN ALUMNI RESEARCH FOUNDATION, priority 2012, dated 2017).

How the values were obtained:
CMP-Sia = target: T1, CMP-Sia (Mus musculus, UniProt Q61420); experiment: CPM thermal stability assay, CMP-Sia; parameters: species or system murine; details: CMC+0.04 wt %, 30° C., under the conditions used for the gel filtration analysis
T1 construct: GFP-His (C, cleaved yes); made in house; host or cells: Saccharomyces cerevisiae
T1 sequence (Q61420 1-336): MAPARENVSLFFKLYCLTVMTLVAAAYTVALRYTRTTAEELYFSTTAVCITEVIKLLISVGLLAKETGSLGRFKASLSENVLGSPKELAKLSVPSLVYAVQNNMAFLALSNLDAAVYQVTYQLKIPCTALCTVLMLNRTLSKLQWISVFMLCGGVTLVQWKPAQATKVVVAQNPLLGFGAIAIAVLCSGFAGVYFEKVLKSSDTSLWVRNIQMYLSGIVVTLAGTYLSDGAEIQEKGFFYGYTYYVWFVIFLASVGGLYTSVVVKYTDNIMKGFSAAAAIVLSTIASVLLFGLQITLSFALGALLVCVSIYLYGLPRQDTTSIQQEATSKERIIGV
Experimental: FIG. 6. CPM assays for (a) CMP-Sia, (b) GlpG and (c) SQR solubilized with each new amphiphile or DDM. The coumarin moiety of CPM is internally quenched by the maleimide unit, but the coumarin becomes fluorescent following reaction with Cys side chain thiol groups exposed upon protein unfolding. The CPM assay can therefore be used to monitor the extent of protein unfolding. CMP-Sia and GlpG were initially extracted from the native membrane with 1% DDM in PBS, 10 mM imidazole (pH 8.0), 150 mM NaCl, 10% glycerol, and isolated in 20 mM Tris (pH 7.5), 150 mM NaCl containing 0.03% DDM. SQR was extracted from the membrane using 2% C12E9 in 20 mM potassium phosphate (pH 7.4), 0.2 M EDTA, and isolated in 20 mM Tris (pH 7.6), 0.2% decyl-β-D-maltoside (DM). […] The “Relative amount of folded protein” in each case is defined as follows: 100% corresponds to the fluorescence emission intensity at time=0 min; 0% corresponds to the lowest value measured among the amphiphile-treated samples for each protein during the 130 min assay period. […] For GlpG and SQR, 0% is defined by the lowest value measured for protein solubilized with DDM. […]
CMP-Sia and GlpG were expressed as fusion proteins with a C-terminal GFP-His tag in Saccharomyces cerevisiae and Escherichia coli respectively. […]

LHI-RC superassembly = experiment: Extraction of LHI-RC superassembly from membranes; parameters: species or system R. capsulatus; details: 2 wt % GDN
Experimental: The favorable MelB extraction performance of GDN led to the examination of this amphiphile for extraction of other IMPs. […] DDM and GDN were used to extract a CMP-Sia fusion protein bearing green fluorescent protein (GFP) at the C-terminus, after expression in Saccharomyces cerevisiae; the amount of solubilized protein was estimated by total fluorescence. GDN (2 wt %), DDM (1 wt %) and OG (1 wt %) gave ˜70%, ˜80% and ˜50% extraction yields, respectively.
The procedure was performed according to the protocol reported by Chae and coworkers (Nat. Methods 2010, 7, 1003-1008).
The solubilization and stability of the R. capsulatus superassembly were assessed according to the published protocol (Chae et al., J. Am. Chem. Soc. 2010, 132, 16750-16752). Briefly, specialized photosynthetic membranes obtained from an engineered strain of Rhodobacter (R.) capsulatus, U43[pUHTM86Bgl], lacking the LHII light-harvesting complex, were used. Solubilization of the LHI-RC superassembly began by thawing, homogenizing, and incubating frozen aliquots of R. capsulatus membranes at 32° C. for 30 min. Subsequent 30-min incubation was performed after adding DDM or LDAO at 1.0 wt % or GDN at 2.0 wt % in the solid form. […] To assess solubilization efficiency, UV-Vis spectra of the solubilized protein solutions were measured in a range of 650˜950 nm.

CCCCCCCCCCCCO[C@@H]1O[C@H](CO)[C@@H](O[C@H]2O[C@H](CO)[C@@H](O)[C@H](O)[C@H]2O)[C@H](O)[C@H]1O [DDM, dodecyl-β-D-maltoside, reference compound]
Relative amount of folded protein (CPM assay), CMP-Sia (CMP-Sia): ~20%

C[C@@H]1CC[C@@]2(OC1)O[C@H]1C[C@H]3[C@@H]4CC=C5C[C@@H](OCCC(CO[C@@H]6OC(CO)[C@@H](O[C@H]7OC(CO)[C@@H](O)C(O)C7O)C(O)C6O)CO[C@@H]6OC(CO)[C@@H](O[C@H]7OC(CO)[C@@H](O)C(O)C7O)C(O)C6O)CC[C@]5(C)[C@H]4CC[C@]3(C)[C@@H]1[C@@H]2C (some centres unmarked) [GDN, glyco-diosgenin]
LHI-RC superassembly extraction compared with 1 wt % DDM (LHI-RC superassembly): Comparable results
